Drawing on PubChem BioAssay AID2305 (GlaxoSmithKline (GSK), 2010), this text covers IC50 for 85 compounds.

The structures appear in SMILES notation.

This experiment relates to P. falciparum 3D7 growth, pLDH absorbance. Nature of the experiment: blood-stage malaria parasite growth potency – strain 3D7, dose response (AID 2305).
Turning to `COc1ccc2ncc(F)c(CCN3C[C@H](CNCc4ccc5oc(=O)ccc5c4)[C@H](O)C3)c2n1`, the IC50 was found to be 950 nM. Then `O=C(n1c(-c2cc3ccccc3n2C(=O)C(F)(F)F)cc2ccccc21)C(F)(F)F`, with 880 nM; and `N=C(N)c1cc(Br)cc(NC(=O)Nc2cc(Br)cc(C(=N)N)c2)c1`, with 820 nM.

`Cc1cccc(C)c1NC1=NC(=S)N(c2cccc(Cl)c2)C12CCC(C(C)(C)C)CC2` (stereo not given): the IC50 was found to be 760 nM. For `O=C(NC1CCN(Cc2ccccc2)CC1)c1cccc(Nc2nc(-c3ccccc3)cs2)c1`, the concentration for half-maximal inhibition (IC50) came out at 1030 nM. In turn, `O=C(Nc1ccc(OC2CCN(Cc3ccsc3)CC2)c(Cl)c1)c1ccc(F)cc1` returned an IC50 of 650 nM. The compound `Cc1ccc(NC(C)C(=O)Nc2ccc(C#N)cc2)cc1S(=O)(=O)N1CCCCC1` (stereo not given) had an IC50 of 540 nM. In the case of `Cc1[nH]c(C)c(-c2cccc(Oc3ccc(Cl)cc3)c2)c(=O)c1Br`, the IC50 amounted to 70 nM.

With `Cc1ccc2nc(C)cc(NN=Cc3ccc([N+](=O)[O-])cc3)c2c1`, the half-inhibitory concentration (IC50) is 790 nM. Next, `Cc1nc2ccc(NC(=O)Nc3ccnc4ccc(C(F)(F)F)cc34)cc2o1`: 910 nM.

As for `O=C(NCCN1CCCC1)c1cccc(-c2ccc(-c3nc4ccc(F)cc4[nH]3)s2)c1`, the IC50 turned out to be 1530 nM. Compound `COc1cc(Cc2cnc(N)nc2N)cc(OC)c1OCCNC(=O)[C@@H](N)CCC(=O)O` returned an IC50 of 840 nM. The compound `Cc1cc2c(cc1Cl)N(C(=O)Nc1cc(F)cc(-c3cncnc3)c1)CC2` registered a half-inhibitory concentration (IC50) of 380 nM. Then `Cc1ccc(CCC(C)NCC(O)c2cccc(Cl)c2)cc1` (stereo not given), with 800 nM; and `COc1ccc(C(=O)Nc2cc(Cl)c3c(c2)C2CCCN2CC3)cc1C(F)(F)F` (stereo not given), with 750 nM; and `FC(F)(F)c1cccc(Nc2nc(-n3ccnc3)nc(-n3ccnc3)n2)c1`, with 720 nM. Then `Cc1cccc2[nH]c(-c3ccc(-c4cccc(CN5CCN(CCN6CCOCC6)CC5)c4)s3)nc12`, with 150 nM. For `C[C@H](Cc1ccc(OCCCCCCOc2ccc(C[C@@H](C)N[C@H](C)c3ccccc3)cc2)cc1)NC[C@H](O)c1cccc(Cl)c1`, the IC50 was 240 nM.

For `CN1CCN(CC(=O)Nc2cccc(-c3ccc(-c4nc5ccc(C(F)(F)F)cc5[nH]4)cc3)c2)CC1`, the IC50 was 520 nM. The compound `CCC[C@@H]([C@@H](CC1CCCCC1)C(=O)N[C@H](C(=O)Nc1nccs1)C(C)(C)SCCNC(=O)OCC)N(O)C=O` showed an IC50 of 80 nM. On to `COc1cc(NC(=O)Nc2ccc(Br)cc2C(=O)Nc2ccc(Br)cc2)cc(OC)c1OC`, for which the IC50 was 760 nM. Then `O=C(NCc1cccc(F)c1)Nc1ccc(-c2cccc(-c3nc4ccccc4[nH]3)c2)cc1`, with 890 nM; and `O=C(N[C@H]1CCN(Cc2ccc(OCCN3CCNCC3)c(Cl)c2)C1)c1ccc(Cl)c(Cl)c1`, with 1060 nM; and `CC(C)(C)c1ccc(CNC(=O)c2cc(CNC3CCNC3)ccc2O)cc1` (stereo not given), with 800 nM. `CCN(CC(C)O)C(=O)c1ccc(-c2ccc(-c3nc4c(C)cccc4[nH]3)cc2)cc1` (stereo not given) yielded a half-inhibitory concentration (IC50) of 840 nM. Consider `O=C(Nc1c(F)cccc1F)c1cccc(-c2nn3ccccc3c2-c2ccnc(Nc3cccc(-c4cnco4)c3)n2)c1`, for which the IC50 amounted to 360 nM. Then `COc1ccc(CCNCc2ccc3c(C)cc(N)nc3c2)cc1`, with 570 nM; and `COc1ccc(-c2ccc(NC(=O)c3cccc(Cl)c3)c(F)c2)cc1CN1CCCN(C)CC1`, with 680 nM; and `N#Cc1cccc(Nc2nccc(NCC(O)c3ccc(C(F)(F)F)cc3)n2)c1` (stereo not given), with 560 nM. `O=C(c1ccccc1)N1CCC(CN2CCOC(c3ccccc3)(c3ccccc3)C2)CC1` returned a concentration for half-maximal inhibition (IC50) of 500 nM. As for `COc1ccc(CNCc2ccsc2)cc1-c1ccc(S(=O)(=O)NCCN2CCCC2)s1`, the half-maximal inhibitory concentration (IC50) stood at 770 nM. Consider `COc1cc(F)c2ncc(Cl)c(CCN3CCC(NCc4ccc5c(c4)NC(=O)CS5)CC3)c2c1`, for which the half-maximal inhibitory concentration (IC50) came to 310 nM. Turning to `c1ccc2[nH]c(-c3ccc(-c4ccc(CN5CCC(N6CCCCC6)CC5)cc4)s3)nc2c1`, the IC50 was found to be 150 nM. `CC(CNC(=O)[C@H]1CNCCN1C(=O)CCCc1ccccc1)c1ccccc1` (stereo not given in full): the half-maximal inhibitory concentration (IC50) amounted to 920 nM. Next, `COCCOc1cccc(CN2CCC(c3cc4nc(C)cc(C(F)(F)F)n4n3)C2)c1` (stereo not given): 1330 nM; `CC[C@H]1CN2CC[C@H]1C[C@@H]2[C@@H](O)c1ccnc2ccccc12`: 280 nM; `Oc1ccc(CCNc2nc(NCc3ccccc3-c3ccc(C(F)(F)F)cc3)nc(N3CCCNCC3)n2)cc1`: 870 nM.

The compound `O=C(NC1CCN(c2ccnc3cc(Cl)ccc23)C1)c1ccc(C(F)(F)F)cc1` (stereo not given) gave an IC50 of 140 nM. For `CC(=O)Nc1ncc(C(=O)Nc2ccc(-c3cccc(-c4nc5ccc(F)cc5[nH]4)c3)cc2)s1`, the half-inhibitory concentration (IC50) is 350 nM. `O=C(Nc1cccnc1)c1cc(C(=O)Nc2cccnc2)cc([N+](=O)[O-])c1`: the concentration for half-maximal inhibition (IC50) turned out to be 1120 nM. The compound `O=c1cc(NCCCN(Cc2cc3c(Cl)cc(Cl)cc3[nH]2)Cc2cc3c(Cl)cc(Cl)cc3[nH]2)[nH]c2ccccc12` returned a 50% inhibitory concentration (IC50) of 120 nM. Then `COCCN(C)CCCOc1cc2c(cc1OC)ncn2-c1cc(OCc2ccccc2C(F)(F)F)c(C(N)=O)s1`, with 710 nM. Compound `O=S1C(Cl)=C(c2ccc(Cl)cc2)c2ccc(Cl)cc21` (stereo not given) returned a half-inhibitory concentration (IC50) of 990 nM.

Compound `Cc1ccc(Cc2c(N)nc3nc(N)nc(N)c3c2C)cc1` came in with a concentration for half-maximal inhibition (IC50) of 190 nM. Next, `OC(COc1ccccc1-c1nc2ccccc2o1)CN1CCCN(CCc2ccccc2)CC1` (stereo not given): 760 nM. Then `FC(F)(F)c1cccc(CNCC2CCN(Cc3ccc4c(c3)OCO4)CC2)c1`, with 730 nM; and `FC(F)(F)c1cnc(Sc2nnc(-c3ccco3)o2)c(Cl)c1`, with 790 nM. Take `CCN(CC)C(=S)N=Nc1c(O)[nH]c2c(C)cccc12`: the IC50 was determined as 860 nM.

As to `CN(Cc1cnc2nc(N)nc(N)c2n1)c1ccc(C(=O)N[C@H](CCC(=O)OC(C)(C)C)C(=O)N[C@@H](CCC(=O)OC(C)(C)C)C(=O)OC(C)(C)C)cc1`, the IC50 came out at 1020 nM. Then `CC1CCCCN1S(=O)(=O)c1ccc(NC(=O)c2cc(-c3ccccc3O)n[nH]2)cc1` (stereo not given), with 760 nM. Consider `CC[C@H]1CN2CC[C@H]1C[C@H]2[C@H](O)c1cc(Cl)nc2ccc(OC)cc12`, for which the IC50 is 580 nM. `O=c1[nH]ccc2nc(N[C@@H]3CCNC3)nc(Nc3cc(Cl)cc(Cl)c3)c12` came in with an IC50 of 740 nM.

The compound `COc1ccccc1/C=C/C(=O)N(C)C1CCN(CCCCCNC(=O)/C=C/c2ccc(Cl)c(Cl)c2)C1` (stereo not given) returned a half-inhibitory concentration (IC50) of 870 nM. Next, `COc1ccc(CCn2c(=N)c(C(=O)NCc3ccccc3)cc3c(=O)n4ccccc4nc32)cc1`: 750 nM; `CN(C)c1ccc(-c2csc(C(=O)NCC3CCN(Cc4ccc(C(C)(C)C)cc4)C3)c2)cc1` (stereo not given): 990 nM; `O=C(CCc1cnc[nH]1)Nc1cccc(-c2ccc(-c3nc4ccccc4[nH]3)cc2)c1`: 650 nM.

Regarding `COc1ccc(CCNCCCCCNCCCc2ccc(Cl)cc2)cc1OC`, the concentration for half-maximal inhibition (IC50) worked out at 810 nM.

For `COc1cc(CNCCCNc2nc3ccsc3c(=O)[nH]2)c2[nH]cc(Cl)c2c1`, the IC50 worked out at 890 nM. Then `O=C(Nc1cc(Cl)ccc1O)c1cc(-c2ccccc2O)no1`, with 1090 nM; and `CC(C)N1CCC(N(Cc2ccc(-c3ccc(C(F)(F)F)cc3)cc2)C(=O)Cn2c(CCc3cccc(F)c3F)cc(=O)c3cn(C)nc32)CC1`, with 1170 nM; and `Cc1cc(C)cc(Oc2c(C(F)(F)F)oc3c(CN4CC(C)OC(C)C4)c(O)ccc3c2=O)c1` (stereo not given), with 940 nM. Then `COc1cc(C=CC(=O)NC2CCC(CN3CCC(c4c[nH]c5ccccc45)CC3)CC2)cc(OC)c1` (stereo not given), with 810 nM; and `COc1ccccc1CNC(=O)C(=O)Nc1c(-c2ccccc2)[nH]c2ccccc12`, with 740 nM.

In the case of `COc1ccc(NC(=O)Nc2ccc(C)c(-c3ccc(C(=O)Nc4ccncc4)cc3)c2)cc1`, the half-maximal inhibitory concentration (IC50) was determined as 570 nM. For the compound `Nn1c(=O)oc2ccc(Cl)cc2c1=O`, the IC50 worked out at 190 nM. Next, `CN1CCC(C(=O)Nc2cccc(-c3ccc(-c4nc5ccc(F)cc5[nH]4)cc3)c2)CC1`: 710 nM; `Cc1nc(-c2ccccc2)nc(N2CCN(C(=O)c3ccco3)CC2)c1Cc1ccccc1F`: 930 nM; `O=C(Nc1cccc(CN2CCCN(Cc3ccc(O)cc3)CC2)c1)c1cc2ccccc2s1`: 360 nM. Next, `NC1CCN(Cc2cccc(-c3csc(-c4nc5ccccc5[nH]4)c3)c2)C1` (stereo not given): 890 nM; `CC(C)C1C(O)=C(c2ccc3ccccc3c2)C(=O)N1Cc1cccc(F)c1` (stereo not given): 810 nM. For the compound `Cc1nnsc1C(=O)Nc1cccc(-c2ccc(-c3nc4ccc(F)cc4[nH]3)s2)c1`, the IC50 is 890 nM. Then `O=C(N[C@@H](CC1CCCCC1)C(=O)NC1CCCc2ccccc21)c1ccc(O)c(-c2ccc(Cl)c(Cl)c2)c1` (stereo not given in full), with 200 nM; and `COc1cc(-c2cc(-c3ccc(OCCN(C)C)cc3)[nH]c2-c2ccncc2)ccc1Cl`, with 710 nM; and `Cc1cc(Nc2ccc(Oc3ccc(Cl)cc3)cc2)nc(N)n1`, with 620 nM. In turn, `COc1ccc(OCCCN2CCCCC2)cc1S(=O)(=O)c1ccc(OCc2ccc(C(F)(F)F)cc2)cc1` gave an IC50 of 1010 nM. In the case of `Cc1cccc2[nH]c(=O)c([N+](=O)[O-])c(O)c12`, the IC50 came to 910 nM. Next, `N#Cc1ccc(N(CC(=O)NCCc2ccc(F)cc2)CC2CC2)c2ccccc12`: 930 nM.

In turn, `Cc1ccc(C(=O)Nc2ccc(Nc3ccnc4cc(-c5ccccn5)ccc34)cc2O)cc1` displayed an IC50 of 110 nM. The compound `COc1cccc(CNC(=O)c2ccnc(-c3ccc(CNCCOc4ccccc4)cc3)c2)c1` came in with an IC50 of 1200 nM.

Consider `CC(=O)N/N=C/[C@H](CCc1ccccc1)NC(=O)[C@H](CC(C)C)NC(=O)c1cccc(OCCN2CCOCC2)c1`, for which the IC50 amounted to 240 nM.

The compound `COc1ccc(-c2ccc(NC(=O)c3ccc(C#N)cc3)cc2)cc1CNC(C)C` came in with an IC50 of 530 nM.

On to `COc1ccc2nccc([C@@H](O)CN3CCC(NC(=O)C(c4cc5ccccc5o4)N4CCN(Cc5ccccc5)CC4)CC3)c2c1` (stereo not given in full), for which the IC50 was determined as 160 nM. For `CCNc1cc(C(=O)N[C@@H](Cc2ccccc2)[C@H](O)CNC(C)(C)CSCC(C)C)cc(N2CCCC2=O)c1`, the IC50 came out at 260 nM.

Take `COc1cc(F)c2nccc([C@@H](O)CN3CC[C@@H](NC(=O)OCc4ccccc4)[C@@H](F)C3)c2c1`: the IC50 was 410 nM. Next, `COc1ccc2ccccc2c1CCCCN1CCN(CC(c2ccc(F)cc2)N2CCC2)CC1` (stereo not given): 760 nM.

A word on the IC50: it is the concentration that gives 50% inhibition. Low values mean greater potency, high ones weaker potency.
